The values that follow come from patent publication US20220380366A1, “HETEROCYCLIC SULFOXIMINE COMPOUND AND INTERMEDIATE THEREOF, PREPARATION METHOD THEREFOR, AND APPLICATION THEREOF” (priority 2019, published 2022).

SMILES strings stand for the structures. Where two headings read alike, the source gives them in different places.

One experiment has as its target T1, wild-type RET kinase (Homo sapiens, UniProt P07949).
T1 construct: purchased Reaction Biology Corporation (contract assay; enzyme is the CRO's)
In words: Biochemical IC50 of wild-type RET kinase (33P-ATP filter binding, Reaction Biology). The procedure: (§1) For detailed test methods, the following references were referred to: T. Anastassiadis, S. W. Deacon, K. Devarajan, H. Ma, J. R. Peterson. […] Nat. Biotech.
(§2) The compounds of the present invention were dissolved in dimethyl sulfoxide (DMSO) to prepare 10 mM stock solutions, and ten different doses by 3-fold serial dilutions from 10 mM were prepared. The ATP concentration used in this determination was 1 μM.
(§3) Base reaction buffer: 20 mM 4-(2-hydroxyethyl)-1-piperazineethanesulfonic acid buffer (Hepes, pH 7.5), 10 mM magnesium chloride, 1 mM ethylene glycol-bis(3-aminoethylether)-N,N,N′,N′-tetraacetic acid (EGTA), 0.02% Brij™-35 (purchased from ThermoFisher Scientific), 0.02 mg/mL bovine serum albumin (BSA), 0.1 mM sodium orthovanadate (Na3VO4), 2 mM dithiothreitol (DTT), 1% dimethyl sulfoxide (DMSO).
(§4) a) adding the corresponding substrate to a freshly prepared base reaction buffer;
(§5) b) adding necessary cofactors;
(§6) c) adding kinase and shake gently;
(§7) d) adding the compounds in DMSO using Acoustic technology (Echo550; nanoliter range) and incubating at room temperature for 20 minutes;
(§8) e) adding 33P-ATP (specific activity 10 μCi/μL) to initiate the reaction;
(§9) f) incubating the kinase reaction at room temperature for 2 hours;
(§10) g) spotting the resultant of reaction on P81 ion exchange paper (purchased from Whatman);
(§11) h) detecting kinase activity by filter binding assay.
(§12) IC50 values were generated using Prism (GraphPad software).

The next experiment concerns the target T2, RET(V804M) mutant (Homo sapiens, UniProt P07949, V804M).
T2 construct: purchased Reaction Biology Corporation (contract assay; enzyme is the CRO's)
Briefly: Biochemical IC50 of RET(V804M) mutant (33P-ATP filter binding, Reaction Biology). The procedure:
as §1, §2, §3, §4, §5, §6, §7, §8, §9, §10, §11, §12

Another experiment concerns the target T3, RET-CCDC6 (Homo sapiens, UniProt P07949).
T3 construct: CCDC6 (fusion partner, UniProt Q16204); purchased Reaction Biology Corporation (contract assay; enzyme is the CRO's); the other entry of the earlier key: CCDC6 (Q16204, Coiled-coil domain-containing protein 6)
T3 sequence (P07949 with tags, fused parts or gaps): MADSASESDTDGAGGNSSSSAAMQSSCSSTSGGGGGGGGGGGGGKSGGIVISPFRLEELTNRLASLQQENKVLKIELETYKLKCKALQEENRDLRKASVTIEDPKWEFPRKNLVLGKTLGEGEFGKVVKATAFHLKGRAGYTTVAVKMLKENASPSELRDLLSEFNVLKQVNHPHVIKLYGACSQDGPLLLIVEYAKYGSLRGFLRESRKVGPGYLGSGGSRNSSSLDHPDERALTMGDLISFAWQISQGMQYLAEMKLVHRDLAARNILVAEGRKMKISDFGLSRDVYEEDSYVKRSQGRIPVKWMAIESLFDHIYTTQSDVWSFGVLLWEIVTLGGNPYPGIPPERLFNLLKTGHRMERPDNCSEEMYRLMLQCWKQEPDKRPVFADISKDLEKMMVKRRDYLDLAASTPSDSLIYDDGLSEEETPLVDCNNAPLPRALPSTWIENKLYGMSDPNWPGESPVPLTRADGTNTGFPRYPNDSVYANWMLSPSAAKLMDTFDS
In words: Biochemical IC50 of RET-CCDC6 fusion (33P-ATP filter binding, Reaction Biology). The procedure: as §1, §2, §3, §4, §5, §6, §7, §8, §9, §10, §11, §12

Experiment [1] has as its system Phospho-RET in LC-2/ad lung cancer cells. In words: Phospho-RET ELISA in LC-2/ad tumor cells. In kind it is cell-based. Particulars: Homo sapiens, LC-2-ad, 1 h, read-out: Cell IC50 Phospho-RET. The procedure: (§13) The compounds of the present invention were dissolved in dimethyl sulfoxide (DMSO) to prepare 10 mM stock solutions, and ten different doses by 3-fold serial dilutions from 10 mM were prepared. An ELISA assay format was used in the test.
(§14) PathScan® Phospho-Ret (panTyr) and p44/42 MAPK (Thr202/Tyr204) (ERK) Sandwich ELISA kits were purchased from Cell Signaling Technology. The LC-2/ad lung cancer cell line was purchased from Sigma-Aldrich. […] The medium was supplemented with 10% fetal bovine serum (FBS), 100 μg/mL penicillin and 100 μg/mL streptomycin, and the cultures were maintained at 37° C. in a humidified atmosphere of 5% CO2 and 95% air.
(§15) a) 1.5×10^4 LC-2/ad cells were seeded in the wells of a 96-well tissue culture plate overnight;
(§16) b) the cells were treated with DMSO or the test compound in DMSO (the initial concentration was 1 μM, and ten doses by 3-fold serial dilutions) for one hour;
(§17) The plate was shaken for 1 minute, then placed on a rocking platform at 4° C. for 30 minutes;
(§18) d) 80 μL/well of lysate was added to the appropriate wells of each ELISA plate and the plate was incubated overnight at 4° C. on a rocking platform;
(§19) e) the contents of the plate were discarded into a container and the wells were washed for four times with 200 μL/well of 1×ELISA wash buffer;
(§20) f) 100 μL of reconstituted Phospho-Ret(panTyr) or Phospho-ERK(Thr202/Tyr204; p44/42MAPK) detection antibody was added to the appropriate wells and the plate was incubated at 37° C. for 1 hour;
(§21) g) the washing procedure was repeated and 100 μL of reconstituted HRP-linked secondary antibody was added to each well of two plates and the plates were incubated at 37° C. for 30 minutes;
(§22) h) the washing procedure was repeated, 100 μL of TMB substrate was added to each well, and the plates were incubated at 37° C. for 45 minutes;
(§23) i) 100 μL of STOP solution was added to each well and the plate was gently shaken for a few seconds.
On the technique in general: In an ELISA, binding on a coated surface is turned into a signal by an enzyme label.

The test system of experiment [2] is Phospho-ERK in LC-2/ad lung cancer cells. Briefly: Phospho-ERK ELISA in LC-2/ad tumor cells. The settings on record: Homo sapiens, 1 h, read-out: Cell IC50 Phospho-ERK. In kind it is cell-based. The procedure: as §13, §14, §15, §16, §17, §18, §19, §20, §21, §22, §23
[3] abbreviates: wild-type RET kinase, ATP 1 μM, 33P-ATP filter binding, read-out: Biochemical IC50 RET.
Setting [4] is: RET(V804M) mutant, ATP 1 μM, 33P-ATP filter binding, read-out: Biochemical IC50 RET (V804M).
The mark [5] stands for this setting: RET-CCDC6 fusion, ATP 1 μM, 33P-ATP filter binding, read-out: Biochemical IC50 RET-CCDC6.

T1 sequence (P07949 29-1114): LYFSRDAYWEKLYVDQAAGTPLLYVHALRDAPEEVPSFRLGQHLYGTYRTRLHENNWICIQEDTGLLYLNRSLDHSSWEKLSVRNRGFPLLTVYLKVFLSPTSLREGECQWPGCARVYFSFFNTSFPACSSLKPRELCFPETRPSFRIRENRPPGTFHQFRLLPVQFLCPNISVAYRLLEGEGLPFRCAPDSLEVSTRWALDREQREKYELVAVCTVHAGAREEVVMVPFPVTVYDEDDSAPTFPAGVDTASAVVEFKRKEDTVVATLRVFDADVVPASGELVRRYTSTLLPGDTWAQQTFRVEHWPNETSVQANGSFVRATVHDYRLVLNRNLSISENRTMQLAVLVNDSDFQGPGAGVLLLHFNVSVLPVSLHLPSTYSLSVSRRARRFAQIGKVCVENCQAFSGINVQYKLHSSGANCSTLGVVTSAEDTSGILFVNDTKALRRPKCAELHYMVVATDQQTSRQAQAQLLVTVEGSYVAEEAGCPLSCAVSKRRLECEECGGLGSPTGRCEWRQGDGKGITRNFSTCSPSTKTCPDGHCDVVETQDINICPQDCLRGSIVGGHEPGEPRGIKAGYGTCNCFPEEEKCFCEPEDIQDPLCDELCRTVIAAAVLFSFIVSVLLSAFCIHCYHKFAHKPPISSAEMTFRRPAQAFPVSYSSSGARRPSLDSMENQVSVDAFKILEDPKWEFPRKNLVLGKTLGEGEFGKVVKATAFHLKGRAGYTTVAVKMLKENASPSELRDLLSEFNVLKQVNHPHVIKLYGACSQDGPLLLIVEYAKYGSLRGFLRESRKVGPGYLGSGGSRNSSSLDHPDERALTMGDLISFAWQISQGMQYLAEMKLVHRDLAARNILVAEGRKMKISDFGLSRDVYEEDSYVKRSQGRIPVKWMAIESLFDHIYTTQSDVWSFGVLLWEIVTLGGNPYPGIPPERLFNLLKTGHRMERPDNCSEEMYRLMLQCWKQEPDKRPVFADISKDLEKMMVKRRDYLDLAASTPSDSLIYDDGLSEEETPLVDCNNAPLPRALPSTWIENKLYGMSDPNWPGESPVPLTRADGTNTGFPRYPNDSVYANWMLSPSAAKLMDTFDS
T2 sequence (P07949 29-1114 V804M): as the sequence (P07949 29-1114) above, with V776M counted along it

`CC(C)CN=S1(=O)CCN(c2ccc(-c3cc(-c4cnn(C)c4)cn4ncc(C#N)c34)cn2)CC1` [Ex. 13, 4-(6-(1-(isobutylimino)-1-oxothiomorpholinyl)pyridin-3-yl)-6-(1-methyl-1H-pyrazole-4-yl)pyrazolo[1,5-a]pyridine-3-carbonitrile]: the IC50 on wild-type RET kinase was 0.89 nM; on RET(V804M) mutant, 5.1 nM; on RET-CCDC6, 0.416 nM; in experiment [1] it was 16.3 nM; in experiment [2], 6.55 nM.
As to `COc1ccc(CN=S2(=O)CCN(c3ccc(-c4cc(-c5cnn(C)c5)cn5ncc(C#N)c45)cn3)CC2)cn1` [Ex. 14, 4-(6-(1-(((6-methoxypyridin-3-yl)methyl)imino)-1-oxothiomorpholinyl)pyridin-3-yl)-6-(1-methyl-1H-pyrazole-4-yl)pyrazolo[1,5-a]pyridine-3-carbonitrile], the concentration for half-maximal inhibition (IC50) at wild-type RET kinase amounted to 0.657 nM; on RET(V804M) mutant it was 5.21 nM; on RET-CCDC6 it was 0.336 nM; in experiment [1] it was 11.5 nM; in experiment [2], 82.5 nM.
In the case of `COc1ccc(N=S2(=O)CCN(c3ccc(-c4cc(-c5cnn(C)c5)cn5ncc(C#N)c45)cn3)CC2)cn1` [Ex. 15, 4-(6-(1-((6-methoxypyridin-3-yl)imino)-1-oxothiomorpholinyl)pyridin-3-yl)-6-(1-methyl-1H-pyrazole-4-yl)pyrazolo[1,5-a]pyridine-3-carbonitrile], the IC50 was 0.759 nM on wild-type RET kinase (setting [3]); 1.72 nM on RET(V804M) mutant (setting [4]); 0.518 nM on RET-CCDC6 (setting [5]); 0.51 nM in experiment [1]; 321 nM in experiment [2].
As for `Cn1cc(-c2cc(-c3ccc(N4CCC(N=S(C)(C)=O)CC4)nc3)c3c(C#N)cnn3c2)cn1` [Ex. 16, 4-(6-(4-((dimethyloxo-λ^4-sulfinyl)amino)piperidin-1-yl)pyridin-3-yl)-6-(1-methyl-1H-pyrazole-4-yl)pyrazolo[1,5-a]pyridine-3-carbonitrile], the half-inhibitory concentration (IC50) on wild-type RET kinase is 1.16 nM; at RET(V804M) mutant it was 5.55 nM; on RET-CCDC6, 0.619 nM; in experiment [1], 66.4 nM; in experiment [2], 7.19 nM.
As for `Cn1cc(-c2cc(-c3ccc(N4CCC(N=[S@](C)(=O)c5ccccc5)CC4)nc3)c3c(C#N)cnn3c2)cn1` [Ex. 18, 4-(6-(4-(((R)—S-methyl-S-phenyl-oxo-λ^4-sulfinyl)amino)piperidin-1-yl)pyridin-3-yl)-6-(1-methyl-1H-pyrazole-4-yl)pyrazolo[1,5-a]pyridine-3-carbonitrile], the IC50 at wild-type RET kinase (setting [3]) worked out at 0.907 nM; at RET(V804M) mutant (setting [4]), 4.72 nM; at RET-CCDC6 (setting [5]), 0.501 nM; in experiment [1], 7.1 nM; in experiment [2], 6.83 nM.
For the compound `Cn1cc(-c2cn3ncc(C#N)c3c(-c3ccc(N4CCS(=N)(=O)CC4)nc3)n2)cn1` [Ex. 20, 4-(6-(1-imino-1-oxothiomorpholinyl)pyridin-3-yl)-6-(1-methyl-1H-pyrazole-4-yl)pyrazolo[1,5-a]pyrazine-3-carbonitrile], the 50% inhibitory concentration (IC50) on wild-type RET kinase worked out at 1.16 nM; at RET(V804M) mutant, 7.91 nM; at RET-CCDC6 it was 0.677 nM; in experiment [1], 91.4 nM; in experiment [2], 7.77 nM.
For `COc1ccc(CN=S2(=O)CCN(c3ccc(-c4nc(-c5cnn(C)c5)cn5ncc(C#N)c45)cn3)CC2)cn1` [Ex. 21, 4-(6-(1-(((6-methoxypyridin-3-yl)methyl)imino)-1-oxothiomorpholinyl)pyridin-3-yl)-6-(1-methyl-1H-pyrazole-4-yl)pyrazolo[1,5-a]pyrazine-3-carbonitrile], the IC50 on wild-type RET kinase amounted to 1.02 nM; on RET(V804M) mutant it was 7.83 nM; at RET-CCDC6, 0.528 nM; in experiment [1] it was 21.3 nM; in experiment [2] it was 6.42 nM.
In the same order, the values of `Cn1cc(-c2cn3ncc(C#N)c3c(-c3ccc(N4CCC(N=[S@](C)(=O)c5ccccc5)CC4)nc3)n2)cn1` [Ex. 25, 4-(6-(4-(((R)—S-methyl-S-phenyl-oxo-λ^4-sulfinyl)amino)piperidin-1-yl)pyridin-3-yl)-6-(1-methyl-1H-pyrazole-4-yl)pyrazolo[1,5-a]pyrazine-3-carbonitrile] are 2.02 nM, 10.6 nM, 1.15 nM, 84.7 nM and 9.27 nM.

In general, IC50 refers to the point on the concentration scale where inhibition reaches its midpoint.
